The results in this text go back to patent US11412737B2, “Mixtures of beflubutamid or optically enriched forms thereof with a second herbicide” (FMC Corporation, priority 2016, dated 2022).

Common to all, as to assay: pre-emergence test, weed control
What all share (details): pre-emergent, 28 DAT; rate g ai/ha by row: r5 94, r6 125, r7 250, r8 3.28, r9 6.56, r10 13.1, r11 94+3.28, r12 94+6.56, r13 94+13.1, r14 125+3.28, r15 125+6.56, r16 125+13.1

Experiment [1] has as its system Common lambsquarters (CHEAL). It is filed as in vivo, Chenopodium album. Here is the method:
(§1) Test compositions containing the test compounds were diluted with water to provide the appropriate test rate concentrations.
(§2) For pre-emergence testing, four disposable fiber flats (6 inch by 10 inch) for each rate of application of each herbicide solution were filled with top soil, to which seeds of each species were planted in furrows made by a template pressed on the top of the soil. The furrows were covered with soil after planting the seed and were watered well before application of the test compounds.
(§3) Fiber flats designated for treatment were placed in a spray chamber having a static platform and a movable sprayer and the height of the spray nozzle was 10.5 inches above the soil level. Once the sprayer was calibrated using water for spray volume of 30 gallons per acre, flats were sprayed with sprayer at a speed to receive a coverage equivalent of 30 gallons per acre. The application rates are those shown in the Tables below for the individual herbicidal solutions and the herbicide compositions of this invention. The pre-emergence flats were immediately placed in the greenhouse and watered lightly after treatment. Thereafter they were regularly watered and fertilized for the duration of the test.
(§4) The control of weeds was evaluated in each experimental test at 21 for wheat and 28 days after treatment (DAT) for all species. Data were analyzed using Minitab software at 95% confidence interval. The results, shown as an average of the replications, were compared with results observed in untreated control flats in the same tests. Percent control was determined by a method similar to the 0 to 100 rating system disclosed in “Research Methods in Weed Science,” 2nd ed., B. Truelove, Ed.; Southern Weed Science Society; Auburn University, Auburn, Ala., 1977. The rating system is as follows in Table 1.

A further experiment deals with Kochia (KCHSC). It is filed as in vivo. How it is done: as §1, §2, §3, §4
In another experiment the test system is Rice flatsedge (CYPIR). It is filed as in vivo. Here is the method: as §1, §2, §3, §4

“And” between values parts separate entries of the source, which are not always exact repeats. Equal entries are not always repeated.

Take `COC(=O)c1c(Cl)nn(C)c1S(=O)(=O)NC(=O)Nc1nc(OC)cc(OC)n1` [Halosulfuron-methyl]: in experiment [1], the “percentage of weed control, Common lambsquarters CHEAL” value was 86% and 56% and 90%. The “percentage of weed control, Kochia KCHSC” value with Kochia (KCHSC) is 66% and 38% and 40%. Moreover, in the experiment on Rice flatsedge (CYPIR), the “percentage of weed control, Rice flatsedge CYPIR” value is 95% and 71% and 99%.
